The record followed here is publication PMC9500072, “Topical application of an irreversible small molecule inhibitor of lysyl oxidases ameliorates skin scarring and fibrosis” (Nature Communications, 2022).

Common to all, as to assay type: biochemical
One assay has as its target T1, recombinant human LOXL3 (Homo sapiens, UniProt P58215).
T1 construct: purchased R&D Systems
T1 sequence (P58215 26-753): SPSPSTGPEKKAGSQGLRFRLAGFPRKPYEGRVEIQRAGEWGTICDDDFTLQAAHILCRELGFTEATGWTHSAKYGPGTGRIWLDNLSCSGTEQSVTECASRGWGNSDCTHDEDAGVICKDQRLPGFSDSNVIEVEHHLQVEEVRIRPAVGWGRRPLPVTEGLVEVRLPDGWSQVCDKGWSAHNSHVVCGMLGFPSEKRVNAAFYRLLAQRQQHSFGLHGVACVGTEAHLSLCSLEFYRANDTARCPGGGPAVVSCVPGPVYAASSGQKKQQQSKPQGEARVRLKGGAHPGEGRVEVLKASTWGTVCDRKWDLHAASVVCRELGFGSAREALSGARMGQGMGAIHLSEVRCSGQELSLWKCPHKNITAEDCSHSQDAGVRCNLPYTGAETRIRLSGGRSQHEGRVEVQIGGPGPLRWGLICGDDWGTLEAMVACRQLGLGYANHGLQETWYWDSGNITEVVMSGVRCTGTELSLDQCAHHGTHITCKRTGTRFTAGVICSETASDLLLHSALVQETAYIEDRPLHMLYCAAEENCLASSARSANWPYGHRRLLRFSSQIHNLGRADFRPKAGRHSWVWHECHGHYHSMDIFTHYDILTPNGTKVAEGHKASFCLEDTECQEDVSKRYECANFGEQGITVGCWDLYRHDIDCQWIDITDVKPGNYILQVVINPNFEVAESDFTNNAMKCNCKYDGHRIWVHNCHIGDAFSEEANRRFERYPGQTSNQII
The assay is described as follows: Amplex Red oxidation assay, LOXL3 inhibition. How it is done: (§1) The measurement of the enzymatic activity of all lysyl oxidase family members was based on the detection of hydrogen peroxide with an Amplex-Red oxidation assay, as previously described; miniaturized in 384 well formats, with the appropriate combination of substrate and assay buffer for each individual enzyme. After a 30 min pre-incubation of the enzyme at 37 °C with the test compound (or with different incubation times for the time-dependency assay), one volume of reaction mixture containing 120 μM Amplex Red (AR) (Life Technologies), 1.5 U/mL horseradish peroxidase (HRP) (Sigma-Aldrich) and the specific substrate was added to each sample. The relative fluorescence units (RFU) were then measured every 2.5 min for 30 min at 37 °C, excitation 565 nm and emission 590, on a BMG Clariostar Microplate Reader. All the substrates were used at concentrations corresponding to their Km towards the corresponding enzyme, or with a range of different concentrations for the substrate competition experiments.
(§2) Lysyl oxidases assay buffer contained 1.2 M urea, 50 mM sodium borate buffer, pH 8.2 and 100 µM β-aminoproprionitrile (BAPN, Sigma-Aldrich) was used for low control.
Recombinant human LOXL1 was expressed and purified from cDNA (GeneArt) and 10 mM putrescine was used as substrate. Recombinant human and mouse LOXL2 (R&D Systems) were challenged with 5 mM putrescine (Sigma-Aldrich) as the substrate. Rat and dog recombinant LOXL2 were amplified and purified in house from HEK-293 clones kindly provided by Dr. Fernando Rodríguez Pascual, Madrid University, and used in the same conditions as for the human form. 2 mM putrescine was used as the substrate for recombinant human LOXL3 (R&D Systems) and LOXL4 (Dr. Fernando Rodríguez Pascual, university of Madrid, Spain) assays.

The target in a further assay is T2, Rat Recombinant LOXL2 (Rattus norvegicus, UniProt B5DF27).
T2 construct: made in house; host or cells: HEK-293 clones (provided by Dr. Fernando Rodríguez Pascual)
T2 sequence (B5DF27 26-776): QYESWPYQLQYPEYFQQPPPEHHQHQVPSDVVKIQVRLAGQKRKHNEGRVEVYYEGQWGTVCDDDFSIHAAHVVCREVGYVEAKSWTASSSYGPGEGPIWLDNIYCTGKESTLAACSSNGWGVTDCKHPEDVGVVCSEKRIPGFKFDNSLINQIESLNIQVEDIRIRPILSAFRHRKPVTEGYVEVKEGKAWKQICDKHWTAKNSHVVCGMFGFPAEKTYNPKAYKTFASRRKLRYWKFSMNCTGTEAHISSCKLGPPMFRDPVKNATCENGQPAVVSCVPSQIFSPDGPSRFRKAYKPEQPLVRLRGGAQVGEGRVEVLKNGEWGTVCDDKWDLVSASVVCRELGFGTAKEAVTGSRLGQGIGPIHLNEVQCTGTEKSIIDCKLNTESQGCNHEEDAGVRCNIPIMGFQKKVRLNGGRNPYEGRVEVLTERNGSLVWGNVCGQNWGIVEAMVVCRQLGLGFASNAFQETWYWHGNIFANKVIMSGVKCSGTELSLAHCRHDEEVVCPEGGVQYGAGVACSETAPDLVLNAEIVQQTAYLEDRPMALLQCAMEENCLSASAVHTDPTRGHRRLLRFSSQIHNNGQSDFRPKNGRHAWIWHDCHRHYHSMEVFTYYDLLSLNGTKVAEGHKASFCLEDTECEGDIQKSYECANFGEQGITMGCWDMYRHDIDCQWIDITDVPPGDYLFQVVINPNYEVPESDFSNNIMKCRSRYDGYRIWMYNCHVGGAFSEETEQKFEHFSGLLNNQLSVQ
The assay is described as follows: Amine oxidase inhibition profile, rat LOXL2.

A further assay concerns the target T3, Rat Fibroblast LOX (Rattus norvegicus, UniProt P16636).
T3 construct: Fibroblast LOX; endogenous in cells; host or cells: rat fibroblasts
T3 sequence (P16636 163-411): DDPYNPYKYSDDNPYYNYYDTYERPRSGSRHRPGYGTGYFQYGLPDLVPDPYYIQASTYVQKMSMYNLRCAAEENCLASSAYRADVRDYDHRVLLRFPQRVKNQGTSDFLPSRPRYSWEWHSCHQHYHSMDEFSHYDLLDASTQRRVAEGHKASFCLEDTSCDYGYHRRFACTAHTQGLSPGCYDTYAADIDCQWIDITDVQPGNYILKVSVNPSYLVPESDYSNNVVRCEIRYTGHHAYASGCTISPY
The assay is described as follows: Amine oxidase inhibition profile, rat fibroblast LOX. Here is the method: as §1, §2
Supplem entary Materi als:
Supplementary Table S1: Amine oxidase inhibition profile of PXS -4787, PXS-6302 and
Supplementary Table S2: Perm eability profile of PXS -6302.

Setting [1] is: 30 min pre-incubation, read-out: rh LOXL3 IC50.
The mark [2] stands for this setting: read-out: Human Recombinant LOXL3 pIC50±SD (converted).

Like-named read-outs stand apart in the source and are kept apart here.

As to `N#CCCN` [BAPN, β-aminoproprionitrile, reference compound], the “Human Recombinant LOXL3 pIC50±SD” value at recombinant human LOXL3 is 6.3 ± 0.1. In addition, at recombinant human LOXL3 (setting [1]), the IC50 turned out to be 510 nM. On Rat Recombinant LOXL2, the IC50 stood at 650 nM and the “Rat Recombinant LOXL2 pIC50±SD” value was determined as 6.2 ± 0.2. Besides, on Rat Fibroblast LOX, the IC50 is 2120 nM and the “Rat Fibroblast LOX pIC50±SD” value came out at 5.7 ± 0.1.
Consider `NC/C=C(\F)CS(=O)(=O)c1ccccc1` [PXS-4787], for which the IC50 at recombinant human LOXL3 (setting [1]) was 1420 nM; on recombinant human LOXL3 (setting [2]), 1260 nM; at Rat Recombinant LOXL2 it was 590 nM; on Rat Fibroblast LOX, 4570 nM. For the same compound, the inhibition (commonly the drop in the measured response relative to a control, in per cent) at 30 µM on recombinant human LOXL3 (log conc -4.5229, read-out: Fig 2A inhibition (mean)) came to 99.7%. Moreover, at recombinant human LOXL3 (log conc -5, read-out: Fig 2A inhibition (mean)), the inhibition at 10 µM was determined as 94.8%. For the same compound, the inhibition at 3.333 µM on recombinant human LOXL3 (log conc -5.4771, read-out: Fig 2A inhibition (mean)) stood at 75.7%. Besides, at recombinant human LOXL3 (log conc -5.9542, read-out: Fig 2A inhibition (mean)), the inhibition at 1.111 µM was 41.8%. In addition, the inhibition at 0.3704 µM on recombinant human LOXL3 (log conc -6.4313, read-out: Fig 2A inhibition (mean)) was 18.9%. Also, the inhibition at 0.1235 µM at recombinant human LOXL3 (log conc -6.9083, read-out: Fig 2A inhibition (mean)) was found to be 6.04%. Further, the inhibition at 0.0412 µM at recombinant human LOXL3 (log conc -7.3851, read-out: Fig 2A inhibition (mean)) was -0.564%. Moreover, the inhibition at 0.0137 µM at recombinant human LOXL3 (log conc -7.8633, read-out: Fig 2A inhibition (mean)) worked out at 1.57%. Besides, the inhibition at 0.0046 µM at recombinant human LOXL3 (log conc -8.3372, read-out: Fig 2A inhibition (mean)) is -2.27%. Moreover, the inhibition at […] at recombinant human LOXL3 (log conc -8.8239, read-out: Fig 2A inhibition (mean)) is -2.78%. Besides, the inhibition at 0.0005 µM at recombinant human LOXL3 (log conc -9.301, read-out: Fig 2A inhibition (mean)) is -0.598%.
In the case of `NC/C=C(\F)C(F)(F)S(=O)(=O)c1ccccc1` [PXS-6302], the IC50 is 1540 nM at recombinant human LOXL3 (setting [1]), 1580 nM on recombinant human LOXL3 (setting [2]), 430 nM at Rat Recombinant LOXL2 and 8570 nM at Rat Fibroblast LOX.
